According to patent US6506730B1, “Nasal transmucosal delivery of peptide conjugated with biocompatible polymers” (priority 1999, dated 2003):
Where no end group is shown, it is not given here.

What was measured:
[1] = pH 5.5 to 6.0; cited from earlier work
[2] = oral administration; cited from earlier work
[3] = test system: calcium concentration in plasma; experiment: Comparison of calcium reduction effect of sCT and PEG-sCT after nasal administration to rats; type: in vivo, SD (Sprague Dawley) male rat; conditions: rat; for plasma calcium as % of pre-dose value: n = 4, plasma calcium as ratio to primary value
Procedure: SD (Sprague Dawley) male rat (220-300 g, Charles River Japan, Atsugi, Japan) was put under anesthesia by administrating 45 mg/kg of peptobarbital into interperitoneal. Bronchus and esophagus were cannulated with PE-250 tube and thigh arteria with SP-45 tube. 20 ul of a placebo and experimental drugs were administered into the nasal cavity of rats with a Hamilton syringe. The placebo used physiological saline and the experimental drug used PEG5000-sCT, PEG12000-sCT, PEG2000-sCT and sCT prepared from the Example 2. Salmon calcitonin was administered at dose of 0.05 to 4.5 IU per rat, and rats were grouped into 4. 200 ul of blood was taken at before, 5, 10, 30, 60, 120, 240, 480 and […] after the placebo and the experimental drugs were administered, and immediately centrifuged to obtain 100 ul of plasma. The calcium concentration in plasma was measured using a calcium assay kit (Sigma, USA), and calcium remaining efficiency was calculated as the calcium concentration before administration was 100. The unit of the measured calcium concentration in plasma was mg/dl, and the remaining efficiency was calculated as the ratio (%) to the primary value.
After the remaining coefficient was calculated according to each time, area-under the curve (AUC) was calculated about the average value of remaining coefficient at each time per experimental group. The reduction ratio of calcium concentration was calculated by the mathematical formula 1, and the results were represented in the table 1 (FIG. 6).
? ΓD(%)=(AUCCa-plac−AUCCa-sCT)/AUCCa-plac ? ┐100
where, AUCCa-plac was AUC from placebo administration to 960 minutes, and AUCCa-sCT was AUC from calcitonin and experimental drugs administration to 960 minutes.

[4] = test system: calcium concentration in plasma; experiment: as above; type: in vivo, SD (Sprague Dawley) male rat; conditions: Time 960 (minutes after nasal administration); rat, n = 4; plasma calcium as ratio to primary value
[5] = nasal transmucosal administration

| Substance | stability in acetate buffer [1] | absorption half life [2] | bioavailability [2] | elimination half life [2] | plasma calcium as % of pre-dose value ([3]; Time 0 (before administration = 100), nasal cavity) | plasma calcium as % of pre-dose value ([3]; Time 5 (minutes after nasal administration)) | plasma calcium as % of pre-dose value ([3]; Time 10 (minutes after nasal administration)) | plasma calcium as % of pre-dose value ([3]; Time 30 (minutes after nasal administration)) | plasma calcium as % of pre-dose value ([3]; Time 60 (minutes after nasal administration)) | plasma calcium as % of pre-dose value ([3]; Time 120 (minutes after nasal administration)) | plasma calcium as % of pre-dose value ([3]; Time 240 (minutes after nasal administration)) | plasma calcium as % of pre-dose value ([3]; Time 480 (minutes after nasal administration)) | time after which calcium concentration restored at the original concentration [3, 5] | time for which the calcium concentration was decreased / reduction effect represented after the nasal transmucosal administration [3, 5] | plasma calcium as % of pre-dose value [4] |
| --- | --- | --- | --- | --- | --- | --- | --- | --- | --- | --- | --- | --- | --- | --- | --- |
| His-Asp-Tyr-Ala-Tyr-Asp-Lys-NH2 (HDYAYDK-NH2) [GHRP-6] | very stable | 15 min | 0.3% | 60 min |  |  |  |  |  |  |  |  |  |  |  |
| salmon calcitonin [sCT] |  |  |  |  | 100% | 98.9% | 93.7% | 95% | 98.7% | 97.8% | 100.3% | 101.6% | 2 h | 1 h | 101% |
